This passage reports residual activity results from ChEMBL document CHEMBL1641539 (Bioorg Med Chem Lett, 2011).

The target in test [1] is PAS domain-containing serine/threonine-protein kinase (Homo sapiens) (UniProt Q96RG2). The test is described as follows: Inhibition of human PASK at 10 uM after 60 mins by TR-FRET assay; values are per cent of control. Background: Time-resolved FRET reads energy transfer from a long-lived donor to a nearby acceptor.
Test [2] relates to Fibroblast growth factor receptor 1 (Homo sapiens), P11362 [V561M]. The test can be described thus: Inhibition of human FGFR1 V561M mutant at 10 uM after 60 mins by TR-FRET assay; values are per cent of control.
In test [3] the target is Serine/threonine-protein kinase ULK3 (Homo sapiens) (UniProt Q6PHR2). The test can be described thus: Inhibition of human ULK3 at 10 uM after 60 mins by TR-FRET assay. To be noted: values are per cent of control.
The target in test [4] is Serine/threonine-protein kinase N2 (Homo sapiens) (UniProt Q16513). The test is described as follows: Inhibition of human PRK2 at 10 uM after 60 mins by TR-FRET assay; values are per cent of control.
The target in test [5] is Tyrosine-protein kinase Yes (Homo sapiens) (UniProt P07947). The test can be described thus: Inhibition of human Yes at 10 uM after 60 mins by TR-FRET assay; values are per cent of control.
For test [6], the target named is Fibroblast growth factor receptor 3 (Homo sapiens) (UniProt P22607). The test can be described thus: Inhibition of human FGFR3 at 10 uM after 60 mins by TR-FRET assay; values are per cent of control.
Test [7] has as its target Tyrosine-protein kinase ABL1 (Homo sapiens) (UniProt P00519). The test is described as follows: Inhibition of human Abl at 10 uM after 60 mins by TR-FRET assay; values are per cent of control.
Test [8] concerns the target Ribosomal protein S6 kinase beta-1 (Homo sapiens) (UniProt P23443). The test is described as follows: Inhibition of human p70S6K at 10 uM after 60 mins by TR-FRET assay; values are per cent of control.
For test [9], the target named is Ephrin type-A receptor 8 (Homo sapiens) (UniProt P29322). The test can be described thus: Inhibition of human EphA8 at 10 uM after 60 mins by TR-FRET assay; values are per cent of control.
In test [10] the target is Death-associated protein kinase 3 (Homo sapiens) (UniProt O43293). The test is described as follows: Inhibition of human ZIPK at 10 uM after 60 mins by TR-FRET assay; values are per cent of control.
Test [11] addresses Serine/threonine-protein kinase 10 (Homo sapiens) (UniProt O94804). The test can be described thus: Inhibition of human LOK at 10 uM after 60 mins by TR-FRET assay. To be noted: values are per cent of control.
Test [12] concerns the target Serine/threonine-protein kinase 33 (Homo sapiens) (UniProt Q9BYT3). The test can be described thus: Inhibition of human STK33 at 10 uM after 60 mins by TR-FRET assay; values are per cent of control.
The target of test [13] is Serine/threonine-protein kinase NLK (Homo sapiens) (UniProt Q9UBE8). The test is described as follows: Inhibition of human NLK at 10 uM after 60 mins by TR-FRET assay; values are per cent of control.
Test [14] addresses Serine/threonine-protein kinase Nek6 (Homo sapiens) (UniProt Q9HC98). The test can be described thus: Inhibition of human NEK6 at 10 uM after 60 mins by TR-FRET assay; values are per cent of control.
Test [15] has as its target Casein kinase I isoform gamma-3 (Homo sapiens) (UniProt Q9Y6M4). The test is described as follows: Inhibition of human CK1gamma3 at 10 uM after 60 mins by TR-FRET assay; values are per cent of control.
For test [16], the target named is Inhibitor of nuclear factor kappa-B kinase subunit beta (Homo sapiens) (UniProt O14920). The test can be described thus: Inhibition of human IKK-beta at 10 uM after 60 mins by TR-FRET assay; values are per cent of control.
The target in test [17] is Interleukin-1 receptor-associated kinase 1 (Homo sapiens) (UniProt P51617). The test can be described thus: Inhibition of human IRAK1 at 10 uM after 60 mins by TR-FRET assay. To be noted: values are per cent of control.
The target in test [18] is Protein-tyrosine kinase 6 (Homo sapiens) (UniProt Q13882). The test can be described thus: Inhibition of human BRK at 10 uM after 60 mins by TR-FRET assay; values are per cent of control.
Test [19] concerns the target Serine/threonine-protein kinase pim-1 (Homo sapiens) (UniProt P11309). The test can be described thus: Inhibition of human Pim-1 at 10 uM after 60 mins by TR-FRET assay; values are per cent of control.
Test [20] has as its target Cyclin-dependent kinase 5/CDK5 activator 1 (Homo sapiens) (UniProt Q00535+Q15078). The test is described as follows: Inhibition of human CDK5/p35 at 10 uM after 60 mins by TR-FRET assay; values are per cent of control.
In test [21] the target is Serine/threonine-protein kinase 17B (Homo sapiens) (UniProt O94768). The test is described as follows: Inhibition of human DYRK2 at 10 uM after 60 mins by TR-FRET assay; values are per cent of control.
Test [22] has as its target Phosphorylase b kinase gamma catalytic chain, liver/testis isoform (Homo sapiens) (UniProt P15735). The test can be described thus: Inhibition of human PhKgamma2 at 10 uM after 60 mins by TR-FRET assay; values are per cent of control.
Test [23] has as its target T1, Serine/threonine-protein kinase 3 (Homo sapiens) (UniProt Q13188).
T1 sequence (whole entry): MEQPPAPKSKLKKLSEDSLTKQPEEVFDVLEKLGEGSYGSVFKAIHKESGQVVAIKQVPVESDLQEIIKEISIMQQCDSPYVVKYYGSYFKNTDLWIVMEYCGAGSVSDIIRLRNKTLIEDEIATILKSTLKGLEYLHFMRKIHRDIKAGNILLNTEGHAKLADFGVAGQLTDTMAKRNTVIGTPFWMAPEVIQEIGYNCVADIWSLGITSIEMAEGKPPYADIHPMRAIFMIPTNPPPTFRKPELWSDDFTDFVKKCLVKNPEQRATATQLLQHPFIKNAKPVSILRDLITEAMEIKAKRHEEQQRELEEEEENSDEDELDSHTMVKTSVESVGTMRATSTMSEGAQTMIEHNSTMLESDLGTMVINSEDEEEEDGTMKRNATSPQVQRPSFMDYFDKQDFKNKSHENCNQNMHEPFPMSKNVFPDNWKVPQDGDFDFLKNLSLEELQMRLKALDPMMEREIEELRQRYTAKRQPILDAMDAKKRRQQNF
The test is described as follows: Inhibition of human MST2 at 10 uM after 60 mins by TR-FRET assay. To be noted: values are per cent of control.

The subject of test [24] is Receptor-type tyrosine-protein kinase FLT3 (Homo sapiens), P36888 [D835Y]. The test can be described thus: Inhibition of human Flt3 D835Y mutant at 10 uM after 60 mins by TR-FRET assay; values are per cent of control.

SMILES strings stand for the structures.

Chain of Fibroblast growth factor receptor 1 (Homo sapiens), P11362 [V561M] (P11362 whole entry V561M): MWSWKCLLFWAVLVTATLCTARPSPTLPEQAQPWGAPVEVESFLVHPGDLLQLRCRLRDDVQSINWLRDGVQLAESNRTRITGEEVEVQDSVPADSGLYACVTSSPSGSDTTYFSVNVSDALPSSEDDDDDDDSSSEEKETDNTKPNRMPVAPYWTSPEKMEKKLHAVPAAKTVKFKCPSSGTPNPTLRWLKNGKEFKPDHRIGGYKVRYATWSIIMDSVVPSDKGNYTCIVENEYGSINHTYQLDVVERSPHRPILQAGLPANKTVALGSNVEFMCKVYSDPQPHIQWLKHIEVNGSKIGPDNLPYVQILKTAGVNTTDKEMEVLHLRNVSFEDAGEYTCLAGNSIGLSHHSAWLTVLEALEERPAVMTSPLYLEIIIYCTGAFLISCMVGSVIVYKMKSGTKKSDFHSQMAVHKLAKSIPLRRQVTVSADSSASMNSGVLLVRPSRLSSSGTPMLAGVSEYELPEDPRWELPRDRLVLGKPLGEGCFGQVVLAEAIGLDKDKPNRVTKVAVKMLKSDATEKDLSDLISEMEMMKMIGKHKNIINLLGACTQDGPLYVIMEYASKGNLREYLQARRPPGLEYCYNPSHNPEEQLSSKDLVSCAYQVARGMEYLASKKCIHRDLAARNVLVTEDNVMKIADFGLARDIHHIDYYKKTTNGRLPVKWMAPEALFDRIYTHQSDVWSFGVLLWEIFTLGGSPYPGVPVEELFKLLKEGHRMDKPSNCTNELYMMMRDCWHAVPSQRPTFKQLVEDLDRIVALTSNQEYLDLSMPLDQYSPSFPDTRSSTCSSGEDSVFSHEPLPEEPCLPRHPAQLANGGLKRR
Chain of Serine/threonine-protein kinase pim-1 (Homo sapiens) (P11309 whole entry, looked up): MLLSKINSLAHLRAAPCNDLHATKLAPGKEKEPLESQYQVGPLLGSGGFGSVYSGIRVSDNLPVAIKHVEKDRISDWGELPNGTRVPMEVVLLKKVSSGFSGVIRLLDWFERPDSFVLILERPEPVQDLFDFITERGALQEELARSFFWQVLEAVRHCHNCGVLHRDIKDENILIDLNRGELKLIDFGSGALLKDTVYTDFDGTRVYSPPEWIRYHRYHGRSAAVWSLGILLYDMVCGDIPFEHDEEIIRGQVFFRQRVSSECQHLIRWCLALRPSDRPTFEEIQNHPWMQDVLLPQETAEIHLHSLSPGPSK
Chain of Cyclin-dependent kinase 5/CDK5 activator 1 (Homo sapiens) (Q00535 whole entry): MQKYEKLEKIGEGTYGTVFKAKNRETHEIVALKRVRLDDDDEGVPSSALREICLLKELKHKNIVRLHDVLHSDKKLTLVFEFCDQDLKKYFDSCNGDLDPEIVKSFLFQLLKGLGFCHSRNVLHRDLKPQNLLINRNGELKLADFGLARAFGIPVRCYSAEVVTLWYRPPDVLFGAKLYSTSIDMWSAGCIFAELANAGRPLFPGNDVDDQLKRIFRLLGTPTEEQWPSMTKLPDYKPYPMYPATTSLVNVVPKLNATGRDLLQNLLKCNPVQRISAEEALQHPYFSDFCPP
Chain of Cyclin-dependent kinase 5/CDK5 activator 1 (Homo sapiens) (Q15078 99-307 partner limits assumed): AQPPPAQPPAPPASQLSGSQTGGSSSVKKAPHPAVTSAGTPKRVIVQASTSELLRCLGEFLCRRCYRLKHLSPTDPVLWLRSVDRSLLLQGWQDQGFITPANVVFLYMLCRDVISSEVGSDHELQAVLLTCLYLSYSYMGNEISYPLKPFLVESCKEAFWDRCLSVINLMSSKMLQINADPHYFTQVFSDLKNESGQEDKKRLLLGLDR
Chain of Tyrosine-protein kinase Yes (Homo sapiens) (P07947 2-543 limits assumed): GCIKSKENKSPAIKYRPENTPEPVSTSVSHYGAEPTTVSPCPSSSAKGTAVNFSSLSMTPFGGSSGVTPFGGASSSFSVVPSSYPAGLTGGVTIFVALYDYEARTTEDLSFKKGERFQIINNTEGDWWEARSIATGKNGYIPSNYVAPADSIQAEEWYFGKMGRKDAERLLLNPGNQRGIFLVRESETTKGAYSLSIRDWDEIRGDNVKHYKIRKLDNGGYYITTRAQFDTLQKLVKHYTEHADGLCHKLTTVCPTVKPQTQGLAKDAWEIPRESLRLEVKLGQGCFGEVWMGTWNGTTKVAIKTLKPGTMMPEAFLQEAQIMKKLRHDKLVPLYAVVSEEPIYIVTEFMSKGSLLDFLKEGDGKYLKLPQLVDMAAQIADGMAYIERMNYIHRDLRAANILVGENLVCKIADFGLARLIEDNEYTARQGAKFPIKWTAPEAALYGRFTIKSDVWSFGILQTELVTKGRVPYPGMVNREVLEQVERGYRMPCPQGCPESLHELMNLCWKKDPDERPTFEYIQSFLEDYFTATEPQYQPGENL
Chain of Serine/threonine-protein kinase ULK3 (Homo sapiens) (Q6PHR2 whole entry): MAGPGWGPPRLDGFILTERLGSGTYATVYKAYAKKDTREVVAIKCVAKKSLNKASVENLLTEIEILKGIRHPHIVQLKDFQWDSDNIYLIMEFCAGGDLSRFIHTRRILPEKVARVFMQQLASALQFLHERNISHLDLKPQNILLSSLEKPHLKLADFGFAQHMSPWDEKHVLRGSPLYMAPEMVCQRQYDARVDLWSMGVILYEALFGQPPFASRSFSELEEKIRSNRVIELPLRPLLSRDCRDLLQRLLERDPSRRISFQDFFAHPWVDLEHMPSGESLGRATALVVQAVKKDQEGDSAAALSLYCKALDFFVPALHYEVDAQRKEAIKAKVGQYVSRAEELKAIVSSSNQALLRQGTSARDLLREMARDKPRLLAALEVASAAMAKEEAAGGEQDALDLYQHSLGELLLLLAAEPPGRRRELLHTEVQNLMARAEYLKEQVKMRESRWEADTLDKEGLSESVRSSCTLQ
Chain of Ribosomal protein S6 kinase beta-1 (Homo sapiens) (P23443 whole entry, looked up): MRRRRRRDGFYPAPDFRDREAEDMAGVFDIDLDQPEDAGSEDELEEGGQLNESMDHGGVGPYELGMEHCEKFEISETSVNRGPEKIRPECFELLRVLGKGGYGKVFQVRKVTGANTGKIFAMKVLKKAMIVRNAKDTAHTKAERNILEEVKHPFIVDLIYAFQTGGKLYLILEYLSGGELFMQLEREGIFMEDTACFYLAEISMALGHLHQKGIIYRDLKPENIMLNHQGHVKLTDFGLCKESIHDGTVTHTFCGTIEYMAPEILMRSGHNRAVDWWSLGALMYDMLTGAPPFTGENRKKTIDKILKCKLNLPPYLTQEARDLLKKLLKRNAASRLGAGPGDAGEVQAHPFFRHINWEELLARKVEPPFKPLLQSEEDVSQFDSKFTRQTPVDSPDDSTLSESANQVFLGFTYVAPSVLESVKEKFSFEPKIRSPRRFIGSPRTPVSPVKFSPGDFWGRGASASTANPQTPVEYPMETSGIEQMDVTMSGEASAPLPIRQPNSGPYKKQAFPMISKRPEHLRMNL
Chain of Serine/threonine-protein kinase Nek6 (Homo sapiens) (Q9HC98 whole entry, canonical isoform): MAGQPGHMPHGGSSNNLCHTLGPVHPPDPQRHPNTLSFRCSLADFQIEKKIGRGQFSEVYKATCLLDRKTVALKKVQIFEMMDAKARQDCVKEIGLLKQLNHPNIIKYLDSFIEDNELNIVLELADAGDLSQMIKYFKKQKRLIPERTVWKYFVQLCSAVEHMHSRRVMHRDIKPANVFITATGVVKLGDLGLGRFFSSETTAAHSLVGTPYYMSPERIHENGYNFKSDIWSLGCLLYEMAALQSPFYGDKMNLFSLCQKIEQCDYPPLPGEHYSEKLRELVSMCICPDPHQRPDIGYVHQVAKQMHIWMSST
Chain of Tyrosine-protein kinase ABL1 (Homo sapiens) (P00519 whole entry): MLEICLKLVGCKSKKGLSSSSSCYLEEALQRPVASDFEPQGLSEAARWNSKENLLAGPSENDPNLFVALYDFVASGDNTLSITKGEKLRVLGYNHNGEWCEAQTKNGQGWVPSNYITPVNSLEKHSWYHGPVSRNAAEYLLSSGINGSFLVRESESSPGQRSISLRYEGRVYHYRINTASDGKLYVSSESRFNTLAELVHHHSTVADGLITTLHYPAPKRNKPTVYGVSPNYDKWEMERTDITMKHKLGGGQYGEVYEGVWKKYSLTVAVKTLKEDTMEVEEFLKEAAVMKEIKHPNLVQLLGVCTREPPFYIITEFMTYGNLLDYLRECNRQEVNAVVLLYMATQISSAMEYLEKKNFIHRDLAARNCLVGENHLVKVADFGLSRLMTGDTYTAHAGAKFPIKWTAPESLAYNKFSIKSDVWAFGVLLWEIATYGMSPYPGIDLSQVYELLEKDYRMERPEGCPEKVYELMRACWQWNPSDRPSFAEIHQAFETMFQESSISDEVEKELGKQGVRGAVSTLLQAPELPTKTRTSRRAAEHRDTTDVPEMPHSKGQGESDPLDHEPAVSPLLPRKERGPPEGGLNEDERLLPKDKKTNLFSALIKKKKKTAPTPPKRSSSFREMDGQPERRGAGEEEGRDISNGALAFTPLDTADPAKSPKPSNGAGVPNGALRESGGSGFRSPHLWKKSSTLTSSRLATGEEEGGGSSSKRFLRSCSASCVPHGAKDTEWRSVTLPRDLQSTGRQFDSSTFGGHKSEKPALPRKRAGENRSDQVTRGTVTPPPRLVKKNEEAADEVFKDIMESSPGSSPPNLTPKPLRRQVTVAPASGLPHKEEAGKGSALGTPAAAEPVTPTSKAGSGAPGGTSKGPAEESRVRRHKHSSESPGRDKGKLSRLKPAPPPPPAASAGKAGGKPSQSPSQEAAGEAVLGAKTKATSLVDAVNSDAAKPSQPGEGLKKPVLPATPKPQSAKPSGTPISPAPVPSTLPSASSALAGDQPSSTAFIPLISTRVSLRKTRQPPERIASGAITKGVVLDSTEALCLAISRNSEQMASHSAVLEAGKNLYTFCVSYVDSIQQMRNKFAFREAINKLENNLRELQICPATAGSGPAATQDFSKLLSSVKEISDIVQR
Chain of Serine/threonine-protein kinase 17B (Homo sapiens) (O94768 whole entry, canonical isoform): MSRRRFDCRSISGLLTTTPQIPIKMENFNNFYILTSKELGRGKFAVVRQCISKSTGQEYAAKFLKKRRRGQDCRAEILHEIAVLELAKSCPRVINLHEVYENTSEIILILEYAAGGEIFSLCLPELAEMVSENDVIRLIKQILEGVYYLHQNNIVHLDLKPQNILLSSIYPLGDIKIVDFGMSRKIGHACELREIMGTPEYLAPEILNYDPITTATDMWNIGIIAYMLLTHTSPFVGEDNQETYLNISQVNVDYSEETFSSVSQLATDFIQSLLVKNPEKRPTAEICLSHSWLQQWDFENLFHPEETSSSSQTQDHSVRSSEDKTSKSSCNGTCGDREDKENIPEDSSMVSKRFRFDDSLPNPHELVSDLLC

As for `S=c1[nH]nc(-c2ccncc2)n1-c1ccc2ccccc2c1`, the residual activity was determined as 99% in test [1]; 106% in test [2]; 107% in [3]; 112% in test [4]; 107% in test [5]; 109% in [6]. Moreover, the residual activity in test [7] was found to be 113%; in [8] it was 102%; in [9] it was 99%; in [10] it was 103%; in test [11], 89%; in test [12], 107%. Moreover, the residual activity in [13] came out at 114%; in test [14], 116%; in test [15], 108%; in test [16] it was 94%; in [17], 113%; in [18], 101%. Also, the residual activity in test [19] stood at 96%; in test [20], 96%; in test [21], 104%; in test [22], 109%; in test [23] it was 103%; in test [24] it was 99%.
